Experiment [1] concerns the target T1, Alpha-1A adrenergic receptor (Homo sapiens, UniProt P35348).
T1 sequence (P35348 whole entry): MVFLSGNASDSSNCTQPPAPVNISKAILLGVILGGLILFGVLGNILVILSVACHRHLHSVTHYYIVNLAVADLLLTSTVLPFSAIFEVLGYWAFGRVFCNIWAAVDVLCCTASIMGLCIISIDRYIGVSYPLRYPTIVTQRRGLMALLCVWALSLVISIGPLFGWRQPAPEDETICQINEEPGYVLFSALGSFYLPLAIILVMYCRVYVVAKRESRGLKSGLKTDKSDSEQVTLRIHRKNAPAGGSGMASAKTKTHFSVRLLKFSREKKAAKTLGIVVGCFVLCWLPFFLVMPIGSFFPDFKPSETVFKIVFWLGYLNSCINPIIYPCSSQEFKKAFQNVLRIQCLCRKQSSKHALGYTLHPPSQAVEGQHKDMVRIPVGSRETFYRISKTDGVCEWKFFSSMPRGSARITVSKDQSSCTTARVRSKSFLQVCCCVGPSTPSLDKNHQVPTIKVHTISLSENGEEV
The class given is functional, cell-based.

Experiment [2] deals with T2, Prostaglandin G/H synthase 1 (Rattus norvegicus, UniProt Q63921).
T2 sequence (Q63921 whole entry): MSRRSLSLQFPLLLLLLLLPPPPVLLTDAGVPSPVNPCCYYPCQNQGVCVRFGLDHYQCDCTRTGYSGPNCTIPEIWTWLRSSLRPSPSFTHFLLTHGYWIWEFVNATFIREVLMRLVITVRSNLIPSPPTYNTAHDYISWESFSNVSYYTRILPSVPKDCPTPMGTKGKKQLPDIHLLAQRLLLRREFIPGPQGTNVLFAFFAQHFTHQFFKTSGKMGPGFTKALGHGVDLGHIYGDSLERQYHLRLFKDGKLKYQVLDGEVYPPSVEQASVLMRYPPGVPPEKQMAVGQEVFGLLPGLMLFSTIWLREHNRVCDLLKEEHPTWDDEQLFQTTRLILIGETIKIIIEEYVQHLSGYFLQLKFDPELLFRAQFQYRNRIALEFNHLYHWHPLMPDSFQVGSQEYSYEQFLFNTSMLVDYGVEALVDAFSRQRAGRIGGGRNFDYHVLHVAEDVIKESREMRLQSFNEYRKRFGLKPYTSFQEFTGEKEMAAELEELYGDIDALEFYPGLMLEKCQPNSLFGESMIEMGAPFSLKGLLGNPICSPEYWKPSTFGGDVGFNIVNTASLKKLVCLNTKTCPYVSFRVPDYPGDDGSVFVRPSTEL
Format: functional.

The target in experiment [3] is T3, Alpha-2A adrenergic receptor (Homo sapiens, UniProt P08913).
T3 sequence (P08913 whole entry): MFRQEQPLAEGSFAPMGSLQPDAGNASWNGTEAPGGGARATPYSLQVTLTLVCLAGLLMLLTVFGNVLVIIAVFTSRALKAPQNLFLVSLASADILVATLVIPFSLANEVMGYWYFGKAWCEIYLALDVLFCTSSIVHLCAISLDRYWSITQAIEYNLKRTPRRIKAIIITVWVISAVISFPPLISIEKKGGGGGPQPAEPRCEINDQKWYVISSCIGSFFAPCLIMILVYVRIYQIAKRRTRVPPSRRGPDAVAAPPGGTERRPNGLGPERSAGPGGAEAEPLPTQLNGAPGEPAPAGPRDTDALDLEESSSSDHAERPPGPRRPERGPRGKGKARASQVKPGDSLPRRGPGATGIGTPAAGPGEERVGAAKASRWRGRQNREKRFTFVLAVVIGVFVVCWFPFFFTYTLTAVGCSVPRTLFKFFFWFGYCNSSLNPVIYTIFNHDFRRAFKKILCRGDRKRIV
Format: functional, cell-based.

Another experiment has as its target D(3) dopamine receptor (Homo sapiens, UniProt P35462).
Experiment [4] addresses T4, Amine oxidase [flavin-containing] A (Homo sapiens, UniProt P21397).
T4 sequence (P21397 whole entry): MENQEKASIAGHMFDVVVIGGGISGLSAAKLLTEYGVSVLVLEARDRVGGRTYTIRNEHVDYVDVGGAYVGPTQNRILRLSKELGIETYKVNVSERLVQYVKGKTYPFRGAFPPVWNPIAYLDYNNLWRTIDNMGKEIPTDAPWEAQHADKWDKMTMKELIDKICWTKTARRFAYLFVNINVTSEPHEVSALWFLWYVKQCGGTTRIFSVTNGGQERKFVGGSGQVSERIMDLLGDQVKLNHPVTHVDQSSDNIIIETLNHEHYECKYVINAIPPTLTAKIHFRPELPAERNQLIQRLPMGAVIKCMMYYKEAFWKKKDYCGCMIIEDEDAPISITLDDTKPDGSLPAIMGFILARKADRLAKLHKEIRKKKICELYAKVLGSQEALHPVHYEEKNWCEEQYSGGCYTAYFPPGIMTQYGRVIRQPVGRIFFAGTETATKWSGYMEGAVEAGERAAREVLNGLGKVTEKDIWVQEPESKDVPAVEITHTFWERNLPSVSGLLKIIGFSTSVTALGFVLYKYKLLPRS
The class given is functional.

Experiment [5] has as its target T5, 5-hydroxytryptamine receptor 3A (Homo sapiens, UniProt P46098).
T5 sequence (P46098 whole entry): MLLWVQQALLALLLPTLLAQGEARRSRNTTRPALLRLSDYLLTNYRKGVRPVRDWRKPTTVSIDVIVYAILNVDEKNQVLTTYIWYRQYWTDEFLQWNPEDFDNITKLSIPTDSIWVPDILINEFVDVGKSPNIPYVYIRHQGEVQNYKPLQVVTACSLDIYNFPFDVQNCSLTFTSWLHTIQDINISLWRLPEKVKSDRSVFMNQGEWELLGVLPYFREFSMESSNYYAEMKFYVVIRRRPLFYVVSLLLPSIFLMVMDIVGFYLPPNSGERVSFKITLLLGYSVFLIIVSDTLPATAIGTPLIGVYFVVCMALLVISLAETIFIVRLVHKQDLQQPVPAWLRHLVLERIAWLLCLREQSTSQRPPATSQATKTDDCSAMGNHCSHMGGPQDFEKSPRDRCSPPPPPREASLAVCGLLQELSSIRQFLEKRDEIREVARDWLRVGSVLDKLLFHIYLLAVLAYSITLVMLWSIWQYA
The class given is functional.

Experiment [6] concerns the target T1, Alpha-1A adrenergic receptor. The class given is functional, cell-based. This is another data set of the same source.

This passage reports AC50 results from ChEMBL document CHEMBL5291721, “A preclinical secondary pharmacology resource illuminates target-adverse drug reaction associations of marketed drugs” (Nat Commun, 2023).

Each structure is given as a SMILES string.
Further: assay procedure not described here.

D(3) dopamine receptor, sequence (P35462 whole entry): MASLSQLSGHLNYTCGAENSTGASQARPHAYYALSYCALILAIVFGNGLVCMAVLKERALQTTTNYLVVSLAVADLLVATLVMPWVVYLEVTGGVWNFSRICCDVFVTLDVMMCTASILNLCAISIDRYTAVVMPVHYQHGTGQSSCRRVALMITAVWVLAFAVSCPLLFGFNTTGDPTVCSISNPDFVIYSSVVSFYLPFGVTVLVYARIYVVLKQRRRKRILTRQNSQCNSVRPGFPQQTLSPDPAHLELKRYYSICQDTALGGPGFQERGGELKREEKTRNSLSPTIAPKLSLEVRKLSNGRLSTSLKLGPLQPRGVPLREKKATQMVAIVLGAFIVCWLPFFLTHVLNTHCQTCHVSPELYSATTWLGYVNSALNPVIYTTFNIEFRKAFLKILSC

Regarding `CN1CCC[C@@H]1Cc1c[nH]c2ccc(CCS(=O)(=O)c3ccccc3)cc12`, the half-maximal activity concentration (AC50) in experiment [1] was > 30 µM.
With `CN(C)CCCN1C(=O)c2cc([N+](=O)[O-])ccc2Oc2ccccc21`, in experiment [1], the AC50 was > 30 µM.
`COC(=O)[C@H](c1ccccc1Cl)N1CCc2sccc2C1` [CLOPIDOGREL]: the AC50 in experiment [2] is > 30 µM; in experiment [3], 11 µM; at D(3) dopamine receptor, > 30 µM; in experiment [4], > 30 µM; in experiment [5], > 30 µM; in experiment [6] it was > 30 µM.
For `CC1(C)O[C@@H]2C[C@H]3[C@@H]4C[C@H](F)C5=CC(=O)C=C[C@]5(C)[C@H]4[C@@H](O)C[C@]3(C)[C@]2(C(=O)CO)O1` [FLUNISOLIDE], the concentration at half-maximal activity (AC50) in experiment [2] was > 30 µM; in experiment [3], 2 µM; at D(3) dopamine receptor, > 30 µM; in experiment [4] it was > 30 µM; in experiment [5], > 30 µM; in experiment [6], 0.048 µM.
Regarding `Nc1nc(O)c2ncn(COC(CO)CO)c2n1` [GANCICLOVIR], the AC50 (in experiment [2]; in experiment [3]; on D(3) dopamine receptor; in experiment [4]; in experiment [5]; in experiment [6]) was > 30 µM in each case.
With `C[C@H]1Oc2cc(cnc2N)-c2c(nn(C)c2C#N)CN(C)C(=O)c2ccc(F)cc21` [LORLATINIB], the AC50 (in experiment [2]; in experiment [3]; on D(3) dopamine receptor; in experiment [4]; in experiment [5]; in experiment [6]) was > 30 µM throughout.
Turning to `Cc1cnc(NC(=O)C2=C(O)c3ccccc3S(=O)(=O)N2C)s1` [MELOXICAM], the concentration at half-maximal activity (AC50) is > 30 µM in experiment [2]; > 10 µM in experiment [3]; > 10 µM at D(3) dopamine receptor; > 10 µM in experiment [4]; > 10 µM in experiment [5]; > 30 µM in experiment [6].
On to `CC(=O)Oc1ccccc1C(=O)Nc1ncc([N+](=O)[O-])s1` [NITAZOXANIDE], for which the AC50 in experiment [2] was found to be 0.0031 µM; in experiment [3] it was 19 µM; on D(3) dopamine receptor, 25 µM; in experiment [4], 7.5 µM; in experiment [5], 3.1 µM; in experiment [6], 8.6 µM.
`CN(C)c1cc(CNCC(C)(C)C)c(O)c2c1C[C@H]1C[C@H]3[C@H](N(C)C)C(O)=C(C(N)=O)C(=O)[C@@]3(O)C(O)=C1C2=O` [OMADACYCLINE]: the AC50 is 0.645 µM in experiment [2]; > 30 µM in experiment [3]; 27 µM at D(3) dopamine receptor; > 30 µM in experiment [4]; 25 µM in experiment [5]; > 30 µM in experiment [6].
`COc1ccnc(C[S+]([O-])c2nc3ccc(OC(F)F)cc3[nH]2)c1OC` (centres undefined) [PANTOPRAZOLE]: the half-maximal activity concentration (AC50) in experiment [2] is > 30 µM; in experiment [3], > 10 µM; on D(3) dopamine receptor, > 10 µM; in experiment [4], > 10 µM; in experiment [5], > 30 µM; in experiment [6], > 30 µM.
On to `COc1ccc(Cc2nccc3cc(OC)c(OC)cc23)cc1OC` [PAPAVERINE], for which the AC50 (in experiment [2]; in experiment [3]; on D(3) dopamine receptor; in experiment [4]; in experiment [5]; in experiment [6]) was > 30 µM in each case.
Consider `O=C1NC(=O)C(c2ccccc2)(c2ccccc2)N1` [PHENYTOIN], for which the AC50 (in experiment [2]; in experiment [3]; at D(3) dopamine receptor; in experiment [4]; in experiment [5]; in experiment [6]) was > 30 µM throughout.
Consider `CCOc1cc(CC(=O)N[C@@H](CC(C)C)c2ccccc2N2CCCCC2)ccc1C(=O)O` [REPAGLINIDE], for which the concentration at half-maximal activity (AC50) (in experiment [2]; in experiment [3]; on D(3) dopamine receptor; in experiment [4]; in experiment [5]; in experiment [6]) was > 30 µM each time.
With `NC(=O)c1ncn([C@@H]2O[C@H](CO)[C@@H](O)[C@H]2O)n1` [RIBAVIRIN], the half-maximal activity concentration (AC50) in experiment [2] is > 10 µM; in experiment [3], > 10 µM; on D(3) dopamine receptor it was > 30 µM; in experiment [4], > 10 µM; in experiment [5], > 30 µM; in experiment [6], > 30 µM.
For the molecule `O=C(Nc1c(Cl)cncc1Cl)c1ccc(OC(F)F)c(OCC2CC2)c1` [ROFLUMILAST], the half-maximal activity concentration (AC50) (in experiment [2]; in experiment [3]; at D(3) dopamine receptor; in experiment [4]; in experiment [5]; in experiment [6]) was > 30 µM throughout.
In the case of `CC[C@H]1OC(=O)[C@H](C)[C@@H](O[C@H]2C[C@@](C)(OC)[C@@H](O)[C@H](C)O2)[C@H](C)[C@@H](O[C@@H]2O[C@H](C)C[C@H](N(C)C)[C@H]2O)[C@](C)(O)C[C@@H](C)/C(=N\OCOCCOC)[C@H](C)[C@@H](O)[C@]1(C)O` [ROXITHROMYCIN], the half-maximal activity concentration (AC50) (in experiment [2]; in experiment [3]; on D(3) dopamine receptor; in experiment [4]; in experiment [5]; in experiment [6]) was > 30 µM in each case.
On to `CC(C)N(CCCCOCC(=O)NS(C)(=O)=O)c1cnc(-c2ccccc2)c(-c2ccccc2)n1` [SELEXIPAG], for which the concentration at half-maximal activity (AC50) in experiment [2] was > 30 µM; in experiment [3], > 30 µM; on D(3) dopamine receptor, > 30 µM; in experiment [4] it was > 30 µM; in experiment [5], > 30 µM; in experiment [6], 7.2 µM.
In the case of `CC(=O)S[C@@H]1CC2=CC(=O)CC[C@]2(C)[C@H]2CC[C@@]3(C)[C@@H](CC[C@@]34CCC(=O)O4)[C@H]12` [SPIRONOLACTONE], the concentration at half-maximal activity (AC50) (in experiment [2]; in experiment [3]; at D(3) dopamine receptor; in experiment [4]; in experiment [5]; in experiment [6]) was > 30 µM throughout.
For `Cc1cc(CC(=O)O)n(C)c1C(=O)c1ccc(Cl)cc1` [ZOMEPIRAC], the AC50 is 16 µM in experiment [2]; > 30 µM in experiment [3]; > 30 µM on D(3) dopamine receptor; > 30 µM in experiment [4]; > 30 µM in experiment [5]; > 30 µM in experiment [6].
